Test results published in article PMC9948168, “Vanillin-Based Indolin-2-one Derivative Bearing a Pyridyl Moiety as a Promising Anti-Breast Cancer Agent via Anti-Estrogenic Activity” (ACS Omega, 2023).

What was measured:
Test in all cases: NCI-60 one-dose screening
Assay type in all cases: cell-based
[1] = tested on: NCI-H460; conditions: Homo sapiens, NCI-H460, Non-Small Cell Lung Cancer, read-out: GI (%)
Description: (§1) Compounds 5a–c and 6a–o were tested using standard NCI protocols for in vitro activity at the National Cancer Institute (NCI, Bethesda, Maryland, USA), wherein compounds were tested using one single concentration of 10 μM against 60 cell lines of nine different cancer types. […] Excellent activity was observed against a single NSCLC cell line, EKVX, for compounds 5a–c (GIs = 77–86%, Table 1) with no observed activity for indoles with substituted vanillin 6a–o.
(§2) Anticancer activity was tested against 60 cancer cell lines at the NCI, Bethesda, USA. The screening process was done with a single dosage of 10 μM according to NCI protocols published on the NCI website https://dtp.cancer.gov/discovery_development/nci-60/methodology.htm.

[2] = tested on: MALME-3M; conditions: Homo sapiens, Melanoma, read-out: GI (%)
Description: as §1, §2

[3] = tested on: DU-145; conditions: Homo sapiens, DU-145, Prostate Cancer, read-out: GI (%)
Description: as §1, §2

[4] = tested on: MOLT-4; conditions: Homo sapiens, MOLT-4, Leukemias, read-out: GI (%)
Description: as §1, §2

[5] = tested on: SN12C; conditions: Homo sapiens, Renal Cancer, read-out: GI (%)
Description: as §1, §2

[6] = tested on: LOX IMVI; conditions: Homo sapiens, Melanoma, read-out: GI (%)
Description: as §1, §2

[7] = tested on: OVCAR-3; conditions: Homo sapiens, OVCAR-3, 10 μM; OVCAR-3, Ovarian Cancer; read-out: GI (%)
Description: as §1, §2

[8] = tested on: U251; conditions: Homo sapiens, U-251, U251, CNS Cancer, read-out: GI (%)
Description: as §1, §2

[9] = tested on: K-562; conditions: Homo sapiens, K562, K-562, Leukemias, read-out: GI (%)
Description: as §1, §2

[10] = tested on: HCT-15; conditions: Homo sapiens, HCT-15, Colon Cancer, read-out: GI (%)
Description: as §1, §2

[11] = tested on: EKVX; conditions: Homo sapiens, Non-Small Cell Lung Cancer, read-out: GI (%)
Description: as §1, §2

[12] = tested on: SF-268; conditions: Homo sapiens, SF-268, CNS Cancer, read-out: GI (%)
Description: as §1, §2

[13] = tested on: MCF7; conditions: Homo sapiens, MCF7, 10 μM; MCF7, Breast Cancer; read-out: GI (%)
Description: as §1, §2

[14] = tested on: MDA-MB-468; conditions: Homo sapiens, MDA-MB-468, Breast Cancer, read-out: GI (%)
Description: as §1, §2

[15] = tested on: NCI-H522; conditions: Homo sapiens, NCI-H522, Non-Small Cell Lung Cancer, read-out: GI (%)
Description: as §1, §2

[16] = tested on: SK-MEL-28; conditions: Homo sapiens, SK-MEL-28, Melanoma, read-out: GI (%)
Description: as §1, §2

[17] = tested on: HL-60(TB); conditions: Homo sapiens, Leukemias, read-out: GI (%)
Description: as §1, §2

[18] = tested on: IGROV1; conditions: Homo sapiens, IGROV-1, IGROV1, Ovarian Cancer, read-out: GI (%)
Description: as §1, §2

[19] = tested on: UO-31; conditions: Homo sapiens, UO-31, Renal Cancer, read-out: GI (%)
Description: as §1, §2

[20] = tested on: CCRF-CEM; conditions: Homo sapiens, Leukemias, read-out: GI (%)
Description: as §1, §2

[21] = tested on: NCI-H226; conditions: Homo sapiens, NCI-H226, Non-Small Cell Lung Cancer, read-out: GI (%)
Description: as §1, §2

[22] = tested on: HCC-2998; conditions: Homo sapiens, HCC-2998, Colon Cancer, read-out: GI (%)
Description: as §1, §2

[23] = tested on: NCI-H23; conditions: Homo sapiens, NCI-H23, Non-Small Cell Lung Cancer, read-out: GI (%)
Description: as §1, §2

[24] = tested on: SK-MEL-5; conditions: Homo sapiens, SK-MEL-5, Melanoma, read-out: GI (%)
Description: as §1, §2

[25] = tested on: HS 578T; conditions: Homo sapiens, Breast Cancer, read-out: GI (%)
Description: as §1, §2

[26] = tested on: MDA-MB-435; conditions: Homo sapiens, MDA-MB-435, Melanoma, read-out: GI (%)
Description: as §1, §2

[27] = tested on: TK-10; conditions: Homo sapiens, TK-10, Renal Cancer, read-out: GI (%)
Description: as §1, §2

[28] = tested on: SNB-19; conditions: Homo sapiens, SNB-19, CNS Cancer, read-out: GI (%)
Description: as §1, §2

[29] = tested on: KM12; conditions: Homo sapiens, KM12, Colon Cancer, read-out: GI (%)
Description: as §1, §2

[30] = tested on: PC-3; conditions: Homo sapiens, PC-3, Prostate Cancer, read-out: GI (%)
Description: as §1, §2

[31] = tested on: OVCAR-8; conditions: Homo sapiens, OVCAR-8, Ovarian Cancer, read-out: GI (%)
Description: as §1, §2

[32] = tested on: UACC-257; conditions: Homo sapiens, UACC-257, Melanoma, read-out: GI (%)
Description: as §1, §2

[33] = tested on: OVCAR-5; conditions: Homo sapiens, OVCAR-5, Ovarian Cancer, read-out: GI (%)
Description: as §1, §2

[34] = tested on: NCI/ADR-RES; conditions: Homo sapiens, Ovarian Cancer, read-out: GI (%)
Description: as §1, §2

[35] = tested on: RPMI-8226; conditions: Homo sapiens, RPMI-8226, Leukemias, read-out: GI (%)
Description: as §1, §2

Compound	inhibition at 10 µM [1] [%]	inhibition at 10 µM [2] [%]	inhibition at 10 µM [3] [%]	inhibition at 10 µM [4] [%]	inhibition at 10 µM [5] [%]	inhibition at 10 µM [6] [%]	inhibition at 10 µM [8] [%]	inhibition at 10 µM [9] [%]	inhibition at 10 µM [10] [%]	inhibition at 10 µM [11] [%]	inhibition at 10 µM [12] [%]	inhibition at 10 µM [13] [%]	inhibition at 10 µM [14] [%]	inhibition at 10 µM [15] [%]	inhibition at 10 µM [16] [%]	inhibition at 10 µM [17] [%]	inhibition at 10 µM [18] [%]	inhibition at 10 µM [19] [%]	inhibition at 10 µM [21] [%]	inhibition at 10 µM [22] [%]	further results
COc1ccc(COc2ccc(/C=C3/C(=O)Nc4cc(Cl)ccc43)cc2OC)cc1 [6n]	20.7	2.77	3.17	0.87	4.32	-2.89	-6.11	-2.8	0.12	13.1	0.26	24	7.72	11.5	-2.94	-13.9	20.1	18.6	6.67	-22.2	inhibition at 10 µM [7]: -5.39%; inhibition at 10 µM [20]: 5.65%; inhibition at 10 µM [23]: 2.17%; inhibition at 10 µM [24]: 3.06%; inhibition at 10 µM [25]: 0.21%; inhibition at 10 µM [26]: -5.13%; inhibition at 10 µM [27]: -64.4%; inhibition at 10 µM [28]: 1.46%; inhibition at 10 µM [29]: 0.42%; inhibition at 10 µM [30]: 7.65%; inhibition at 10 µM [31]: 1.31%; inhibition at 10 µM [32]: -21.9%; inhibition at 10 µM [33]: 2.3%; inhibition at 10 µM [34]: 0.37%; inhibition at 10 µM [35]: 9.52%
COc1cc(C=C2C(=O)Nc3ccc(Cl)cc32)ccc1OCc1ccc(F)cc1 (mixture of isomers) [6h]	29.5	17.7	10.5	23.3	11.1	31.7	49.3	11.4	13.6	11.5	9.84	51	12.8	12.1	-3.14	-2.34	22.7	25.7	4.31	-7.02	inhibition at 10 µM [20]: 30.5%; inhibition at 10 µM [23]: 18.8%; inhibition at 10 µM [24]: 10.8%; inhibition at 10 µM [25]: 5.91%; inhibition at 10 µM [26]: 8.73%; inhibition at 10 µM [27]: -29%; inhibition at 10 µM [28]: 8.68%; inhibition at 10 µM [29]: -0.4%; inhibition at 10 µM [30]: 15.8%; inhibition at 10 µM [31]: 8.78%; inhibition at 10 µM [32]: -1.98%; inhibition at 10 µM [33]: 3.31%; inhibition at 10 µM [34]: 11.7%; inhibition at 10 µM [35]: -0.5%
COc1cc(/C=C2/C(=O)Nc3cc(Cl)ccc32)ccc1OCc1ccc(F)cc1 [6m]	1.02	7.28	-4.25	-0.43	4.13	6.49	-10.6	2.33	10.9	23.5	-0.8	42.9	7.02	7.08	-5.13	-20.4	27.3	20.2	8.79	3.17	inhibition at 10 µM [7]: -1.69%; inhibition at 10 µM [23]: -0.55%; inhibition at 10 µM [24]: 1.04%; inhibition at 10 µM [25]: 8.25%; inhibition at 10 µM [26]: -3.13%; inhibition at 10 µM [27]: -85.2%; inhibition at 10 µM [28]: -3.75%; inhibition at 10 µM [29]: -2.27%; inhibition at 10 µM [30]: 13%; inhibition at 10 µM [31]: 1.34%; inhibition at 10 µM [32]: -9.31%; inhibition at 10 µM [33]: 1.44%; inhibition at 10 µM [34]: -0.91%; inhibition at 10 µM [35]: -13.2%
